Measured values taken from PMC10192568, “Comparison of pharmacokinetic profiles of seven major bioactive components in normal and non-alcoholic fatty liver disease (NAFLD) rats after oral administration of Ling-Gui-Zhu-Gan decoction by UPLC-MS/MS” (Frontiers in Pharmacology, 2023).
Read-outs that look alike come from different tables or passages of the source.

Tests used:
[1] = Pharmacokinetic study of LGZGD components in plasma of normal and NAFLD rats after oral administration (UPLC-MS/MS); assay type: in vivo, Male Sprague–Dawley rats; conditions: for AUC0-∞ value decreased / C max value decreased: NAFLD rats compared with normal rats; for AUC(0-inf) / AUC(0-t) / Cmax / Tmax / half-life / MRT last: Sprague-Dawley, rat, plasma, male SD rats, oral LGZGD extract 23 g/kg, mean ± SD, n = 6; for MRT last: read-out: MRT0-t
Method: Male Sprague–Dawley rats, weighing 200–220 g, SPF grade, were purchased from Shanghai Sippr-BK laboratory animal Co. Ltd. (Shanghai, China) and raised in the Laboratory Animal Center of Shanghai University of Traditional Chinese Medicine. The rats were kept in an environmentally controlled condition: on a 12:12 h light–dark cycle (lights on at 7:00 a.m.) with regulated temperature and humidity, at a temperature of 22°C–24°C and a relative humidity of 60–65%. In the experiment, the rats in the normal group were fed a certified standard rat diet and tap water, while those in the model group were fed a high-fat diet for 8 weeks to construct the NAFLD model (high-fat diet: 2% cholesterol, 10% lard, 0.1% sodium cholate, 10% yolk powder, and 77.9% normal diet). The animal experiment program was approved by the Animal Committee of Shanghai University of Traditional Chinese Medicine (License No.: PZSHUTCM201016001).
An Agilent 1290 UPLC system was combined with an Agilent 6460 series MS/MS system (Agilent Technologies, Santa Clara, CA, United States) to quantify the analytes in the ESI-positive ionization mode. The mass spectrum conditions were as follows: a capillary voltage of 4,000 V; a gas flow rate of 10 L/min; a nebulizer of 30 psi; a gas temperature of 350°C; and a Delta EMV(+) of 200 V. Five microliters of the samples was injected into an Agilent SB-C18 column (2.1 mm × 50 mm, 1.8 μm particles). The analytes were separated using the gradient elution method, and the mobile phase was composed of water (0.05% V/V formic acid) (A) and acetonitrile (B) at a flow rate of 0.4 mL/min (0–1 min, 10–10% B; 1–5 min, 10–90% B; 5–7 min, 90–90% B; and 7–7.1 min, B 90–10%; rebalance for 2 min).
A plasma sample of 50 µL was placed in a 1.5 mL centrifuge tube with 10 µL of schisandrin (IS) solution (50 ng/mL) and mixed for 5 min. The samples were successively extracted with 500 µL of ethyl acetate and treated with 250 µL of methanol, which were then mixed for 5 min and centrifuged at 4°C for 10 min (at 18,000 rpm). All the supernatant was absorbed into another 1.5 mL centrifuge tube, dried under a gentle stream of nitrogen at 37°C, and then added with 50 µL of 50% methanol for reconstruction. After being centrifuged at 4°C for 10 min (at 18,000 rpm), 5 µL of the supernatant was extracted and injected into a chromatographic column for analysis, and the chromatograms were recorded.
The rats were randomly divided into the normal group and the model group. According to the preliminary experiment, the dose was adjusted to about eight times the normal dose ([Gu, 2020]; [Li et al., 2023]). […] The animal research program was approved by the Animal Committee of Shanghai University of Traditional Chinese Medicine. At 0, 0.083, 0.25, 0.5, 0.75, 1, 2, 4, 6, 8, 10, 12, 24, and 48 h after dosing, 150 µL blood samples were collected from the rats' orbital venous plexus into centrifuge tubes containing 10 IU of sodium heparin. After being centrifuged at 5,000 rpm (4°C) for 10 min, the plasma was transferred to 1.5 mL polypropylene tubes and stored at −80°C until the plasma samples were analyzed.
Important pharmacokinetic parameters, which included the maximum plasma concentration (C max), time to maximum concentration (T max), half-life (t 1/2), area under the curve (AUC0-t), and total area under the curve (AUC0-∞), were hereby calculated using the DAS 3.2.8 software. Meanwhile, the pharmacokinetic data of the normal and model rats were compared using the SPSS software (version 21.0). Besides, Spearman rank bivariate correlation coefficient was used to determine the correlation between AUC values and UGT1A1 and nine other transporters. All the calculated data were expressed as mean ± SD. When p < 0.05, the difference was considered significant and statistically significant; and when p < 0.01 or <0.001, the difference was considered very significant.

[2] = Stability of the seven components in rat plasma QC samples; assay type: physicochemical; conditions: n = 6; for Stability during 24 h at 4°C, RE: auto sampler
Method: Stability refers to the ability of the components to retain their chemical properties in the matrix. To analyze the stability of all components in the plasma, six replicates of QC samples at three concentrations were hereby prepared under each condition. The stability of the QC samples at three concentrations was analyzed under different storage conditions: −80°C for 30 days, after three freeze–thaw cycles, and 24 h in an auto sampler at 4°C.

[3] = NAFLD rats compared with the normal group, oral LGZGD
[4] = male, po, 23 g/kg, Model (NAFLD) group
[5] = male, po, 23 g/kg, Normal group

Row | SMILES | AUC0-∞ value decreased ([1]; oral LGZGD) [%] | C max value decreased ([1]; oral LGZGD) [%] | AUC(0-inf) [1, 4] [ng·h/mL] | AUC(0-t) [1, 4] [ng·h/mL] | Cmax [1, 4] [ng/mL] | half-life [1, 4] [h] | MRT last [1, 4] [h] | AUC(0-inf) [1, 5] [ng·h/mL] | AUC(0-t) [1, 5] [ng·h/mL] | Cmax [1, 5] [ng/mL] | half-life [1, 5] [h] | MRT last [1, 5] [h] | Stability during 24 h at 4°C, RE ([2]; high QC level) [%] | Stability during 24 h at 4°C, RE ([2]; low QC level) [%] | Stability during 24 h at 4°C, RE ([2]; medium QC level) [%] | Three freeze–thaw cycles, RE ([2]; high QC level) [%] | −80°C for 30 days, RE ([2]; high QC level) [%] | Three freeze–thaw cycles, RE ([2]; low QC level) [%] | −80°C for 30 days, RE ([2]; low QC level) [%] | Three freeze–thaw cycles, RE ([2]; medium QC level) [%] | further results
1 | CC1(C)[C@@H](O)CC[C@]2(C)[C@H]3C(=O)C=C4[C@@H]5C[C@@](C)(C(=O)O)CC[C@]5(C)CC[C@@]4(C)[C@]3(C)CC[C@@H]12 [Glycyrrhetinic acid, glycyrrhetinic acid] | 50.6 | 65.0 | 26200 ± 14400 | 25600 ± 14800 | 1650 ± 1170 | 8.9 ± 4.5 | 15.6 ± 2.3 | 89600 ± 28600 | 88200 ± 27200 | 7280 ± 2080 | 6 ± 2.1 | 10.8 ± 1.1 | −8.9 | 5.2 | 6.7 | 2.2 | 2.6 | −0.4 | −5.2 | −7.7 | MRT0-t prolonged [1, 3]: 44.4%; Tmax [1, 4]: 13.2 ± 6.3 h; Tmax [1, 5]: 9.3 ± 1.6 h; −80°C for 30 days, RE ([2]; medium QC level): −4.9%
2 | CC1(C)[C@@H](O[C@H]2O[C@H](C(=O)O)[C@@H](O)[C@H](O)[C@H]2O[C@@H]2O[C@H](C(=O)O)[C@@H](O)[C@H](O)[C@H]2O)CC[C@]2(C)[C@H]3C(=O)C=C4[C@@H]5C[C@@](C)(C(=O)O)CC[C@]5(C)CC[C@@]4(C)[C@]3(C)CC[C@@H]12 [Glycyrrhizic acid, glycyrrhizic acid] | 70.8 | 77.4 | 40800 ± 25000 | 40700 ± 25100 | 2240 ± 1200 | 5.4 ± 1.4 | 16 ± 8 | 82700 ± 10000 | 81000 ± 10500 | 6420 ± 2240 | 6.3 ± 3 | 13.7 ± 3.3 | −3.3 | −1.6 | −5.6 | 9.7 | 2.7 | −5.9 | −1.0 | −3.7 | Tmax [1, 4]: 8.1 ± 4.9 h; Tmax [1, 5]: 10.4 ± 1.7 h; −80°C for 30 days, RE ([2]; medium QC level): 1.7%
3 | O=C(/C=C/c1ccc(O[C@@H]2O[C@H](CO)[C@@H](O)[C@H](O)[C@H]2O)cc1)c1ccc(O)cc1O [Isoliquiritin, isoliquiritin] | 65.8 | 31.1 | 56.9 ± 10.8 | 51.9 ± 7.8 | 4.2 ± 0.8 | 13.1 ± 7.5 | 15.5 ± 1.8 | 166 ± 10.5 | 108 ± 21.2 | 6.1 ± 1.8 | 9.2 ± 4.4 | 19.8 ± 1.7 | −12.7 | 1.3 | 11.0 | 3.9 | 4.0 | −6.8 | −1.1 | −3.0 | MRT decreased [1, 3]: 21.7%; Tmax ([1]; Normal group): 0.6 ± 0.1 h; −80°C for 30 days, RE ([2]; medium QC level): −2.1%
